Our source for the IC50 values is patent US10308615B2, “Heterocyclic compounds as inhibitors of Vanin-1 enzyme” (Pfizer Inc., priority 2015, dated 2019).

Holding throughout (format): biochemical
The target in experiment [1] is T1, human vanin-1 (Homo sapiens (Human), UniProt O95497). Nature of the experiment: Human Vanin-1 Enzyme Assay 3. The following applies: 2 nM human vanin-1, 10 uM substrate, 15 min. In outline: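 His/FLAG-tagged extracellular domain of human vanin-1 from CHO cells, used at 2 nM final, with 10 uM pantetheine-AFC substrate. Buffer: 50 mM Tris-HCl pH 8.0, 50 mM KCl, 0.005% Brij-35, 1.5 mM cysteamine, 1% DMSO. 15 min at room temperature; fluorescence read at 405/505 nm across an 11-point 2-fold dilution series.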
T1 sequence (O95497 22-491): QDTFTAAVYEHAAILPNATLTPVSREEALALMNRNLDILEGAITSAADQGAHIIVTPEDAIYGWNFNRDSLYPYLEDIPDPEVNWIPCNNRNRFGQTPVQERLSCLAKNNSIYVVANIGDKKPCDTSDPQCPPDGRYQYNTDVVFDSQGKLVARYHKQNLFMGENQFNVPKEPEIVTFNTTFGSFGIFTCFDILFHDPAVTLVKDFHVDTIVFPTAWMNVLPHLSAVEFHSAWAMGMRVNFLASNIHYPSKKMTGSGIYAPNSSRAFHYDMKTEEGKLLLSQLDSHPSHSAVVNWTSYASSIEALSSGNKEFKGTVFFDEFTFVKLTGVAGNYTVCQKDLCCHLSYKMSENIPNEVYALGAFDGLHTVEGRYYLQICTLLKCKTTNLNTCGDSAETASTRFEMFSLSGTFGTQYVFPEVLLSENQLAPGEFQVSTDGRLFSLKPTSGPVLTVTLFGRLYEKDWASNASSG

Experiment [2] concerns the target T1, human vanin-1. Description: Human Vanin-1 Enzyme Assay 2. The settings on record: 1 nM human vanin-1, 10 uM substrate, 45 min. Here is the method:
Human Vanin-1 Enzyme Assay 2.
The in vitro assay measures enzymatic cleavage of the fluorescently-labeled vanin substrate, pantetheine 7-amino-4-trifluoromethylcoumarin, by human vanin-1.
The vanin-1 protein was prepared in-house from a construct expressing the extracellular domain of human vanin-1 (GenBank ID NM_004666) preceded N-terminally by the honey bee melittin signal peptide, a GSG linker sequence, a His6X tag and a FLAG tag. The secreted, soluble enzyme was purified from the conditioned medium from a CHO cell line stably expressing the resulting protein. Enzyme purification was performed through sequential Ni NTA and size-exclusion chromatography steps.
On the day of the assay, dose response plates were prepared by diluting the inhibitors in DMSO at compound concentration 100-fold the final in-assay concentration. Concentration series were prepared by serially diluting in DMSO in a half-log series for a total of 11 data points. Intermediate compound plates containing compound in 10% DMSO were then created by diluting the compounds 10-fold in assay buffer consisting of 50 mM Tris-HCl pH=8.0, 50 mM KCl, 0.005% Brij-35 and 1.5 mM cysteamine. To begin the assay 3 μL were transferred from the intermediate compound plate to the assay plate.
A working solution of human vanin-1 was prepared by diluting the enzyme stock to 1.25 nM in assay buffer. Next, 24 μL of the vanin-1 working solution were transferred to the assay plate. The enzyme reaction was then initiated by the addition of 3 μL of 100 μM pantetheine 7-amino-4-trifluoromethylcoumarin prepared in assay buffer. The final concentrations in the assay were 1 nM human vanin-1 and 10 uM substrate. The final concentration of DMSO was 1%. The assay plates were incubated for 45 minutes and before they were read on a Spectramax M5 using a 405 nm excitation wavelength and a 505 nm emission wavelength for detection.

Experiment [3] addresses T1, human vanin-1. Description: Human Vanin-1 Enzyme Assay 1. The following applies: 25 pM human vanin-1, 50 uM pantetheine 7-amino-4-trifluoromethylcoumarin, 30 min preincubation, 60 min. In outline:
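Purified His6/FLAG-tagged extracellular domain of human vanin-1, secreted from CHO cells, at 25 pM final in 50 mM Tris-HCl pH 8.0, 50 mM KCl, 0.005% Brij-35, 1.6 mM cysteamine, 0.5% DMSO. Inhibitor preincubated 30 min at room temperature; 50 uM pantetheine-AFC substrate, 60 min, fluorescence at 405/510 nm; 11-point four-fold dilution series.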

For the compound `N#Cc1cccc(C(=O)c2cnc(NC3(c4ccccc4)CC3)nc2)c1` [Example 65, 3-({2-[(1-phenylcyclopropyl)amino]pyrimidin-5-yl}carbonyl) benzonitrile], the IC50 in experiment [1] is 12 nM; in experiment [2], 22.1 nM; in experiment [3], 18.8 nM.
The corresponding values for `N#Cc1cccc(C(=O)c2cnc(NCc3ccccc3Cl)nc2)c1` [Example 32, 3-({2-[(2-chlorobenzyl)amino]pyrimidin-5-yl}carbonyl) benzonitrile] are 14.3 nM, 71.3 nM and 95.3 nM.
The corresponding values for `NC(=O)c1ccc(CNc2ncc(C(=O)c3cc(F)cc(C(F)(F)F)c3)cn2)cc1` [Example 95, 4-[({5-[3-fluoro-5-(trifluoromethyl)benzoyl]pyrimidin-2-yl}amino)methyl] benzamide] are 166 nM, 242 nM and 91.9 nM.
The corresponding values for `O=C(O)c1ccc(CNc2ncc(C(=O)c3ccc(F)c(F)c3)cn2)cc1` [Example 49, 4-({[5-(3,4-difluorobenzoyl)pyrimidin-2-yl]amino}methyl) benzoic acid] are 112 nM, over 7620 nM and 5690 nM.
With `O=C(c1ccccc1)c1cnc(NCc2cccnc2)nc1` [Example 34, phenyl{2-[(pyridin-3-ylmethyl)amino]pyrimidin-5-yl}methanone], the IC50 in experiment [1] was 69.3 nM; in experiment [2], 108 nM; in experiment [3], 53.7 nM.
The corresponding values for `O=C(c1cnc(NCc2ccccc2)nc1)c1cccc(Cl)c1` [Example 24, [2-(benzylamino)pyrimidin-5-yl](3-chlorophenyl) methanone] are 274 nM, 317 nM and 1240 nM.
The like results for `Cc1ccc(CNc2ncc(C(=O)c3cccc(C(F)(F)F)c3)cn2)cn1` [Example 73, (2-{[(6-methylpyridin-3-yl)methyl]amino}pyrimidin-5-yl)[3-(trifluoromethyl)phenyl]methanone] were, in that order, 1.2 nM, 10.6 nM and 1.7 nM.
For the compound `CS(=O)(=O)c1cccc(C(=O)c2cnc(NCc3ccc(C(N)=O)cc3)nc2)c1` [Example 125, 4-[({5-[3-(methylsulfonyl)benzoyl]pyrimidin-2-yl}amino)methyl] benzamide], the IC50 in experiment [1] was over 1250 nM; in experiment [2], 21.9 nM.
On to `O=C(c1cnc(NCc2cccnc2)nc1)c1cccs1` [Example 100, {2-[(pyridin-3-ylmethyl)amino]pyrimidin-5-yl}(thiophen-2-yl)methanone], for which the IC50 worked out at 145 nM in experiment [1], 122 nM in experiment [2] and 162 nM in experiment [3].
The like results for `O=C(c1cnc(NCc2cccnc2)nc1)c1ccccc1Cl` [Example 102, (2-chlorophenyl){2-[(pyridin-3-ylmethyl)amino]pyrimidin-5-yl}methanone] were, in that order, 722 nM, 549 nM and 858 nM.
For `Cn1cc(C(=O)c2cnc(NCc3cccnc3)nc2)cn1` [Example 103, (1-methyl-1H-pyrazol-4-yl){2-[(pyridin-3-ylmethyl)amino]pyrimidin-5-yl}methanone], the IC50 in experiment [1] was determined as 381 nM; in experiment [2], 563 nM.
As to `O=C(c1cnc(NCc2cnccn2)nc1)c1cccc(C(F)(F)F)c1` [Example 11, {2-[(pyrazin-2-ylmethyl)amino]pyrimidin-5-yl}[3-(trifluoromethyl)phenyl]methanone], the IC50 in experiment [1] is under 6.2 nM; in experiment [2], 9 nM; in experiment [3], 6.4 nM.
The like results for `N#Cc1cccc(C(=O)c2cnc(NCc3ccccc3)nc2)c1` [Example 27, 3-{[2-(benzylamino)pyrimidin-5-yl]carbonyl} benzonitrile] were, in that order, 52.2 nM, 40.4 nM and 79.7 nM.
The like results for `O=C(c1ccccc1)c1cnc(NCc2cccnn2)nc1` [Example 115, phenyl{2-[(pyridazin-3-ylmethyl)amino]pyrimidin-5-yl}methanone] were, in that order, 806 nM, 1510 nM and 1400 nM.
In the case of `O=C(c1cnc(NCc2cccnc2)nc1)c1cc(F)cc(C(F)(F)F)c1` [Example 128, [3-fluoro-5-(trifluoromethyl)phenyl]{2-[(pyridin-3-ylmethyl)amino]pyrimidin-5-yl}methanone], the IC50 is 43.5 nM in experiment [1], 38.9 nM in experiment [2] and 38.1 nM in experiment [3].
The like results for `O=C(c1cnc(NCc2cccnc2)nc1)c1ccccc1F` [Example 15, (2-fluorophenyl){2-[(pyridin-3-ylmethyl)amino]pyrimidin-5-yl}methanone] were, in that order, 170 nM, 92.4 nM and 329 nM.
The like results for `N#Cc1cccc(C(=O)c2cnc(NCc3cnccn3)nc2)c1` [Example 117, 3-({2-[(pyrazin-2-ylmethyl)amino]pyrimidin-5-yl}carbonyl) benzonitrile] were, in that order, 18.1 nM, 31.8 nM and 50.5 nM.
The like results for `Cc1cccc(C(=O)c2cnc(NCc3cccnc3)nc2)c1` [Example 14, (3-methylphenyl){2-[(pyridin-3-ylmethyl)amino]pyrimidin-5-yl}methanone] were, in that order, under 13 nM, 31.5 nM and 47.8 nM.
Turning to `N#Cc1cccc(C(=O)c2cnc(NCc3cccnc3)nc2)c1` [Example 118, 3-({2-[(pyridin-3-ylmethyl)amino]pyrimidin-5-yl}carbonyl) benzonitrile], the IC50 in experiment [1] came to 4.6 nM; in experiment [2], 11.2 nM; in experiment [3], 4 nM.
Regarding `CC(C)(Nc1ncc(C(=O)c2cccc(Cl)c2)cn1)c1ccccc1` [Example 25, (3-chlorophenyl){2-[(2-phenylpropan-2-yl)amino]pyrimidin-5-yl}methanone], the IC50 in experiment [1] was 11.5 nM; in experiment [2], 64.5 nM; in experiment [3], 74.1 nM.
In the case of `COc1cccc(C(=O)c2cnc(NCc3ccc(F)cc3)nc2)c1` [Example 37, {2-[(4-fluorobenzyl)amino]pyrimidin-5-yl}(3-methoxyphenyl) methanone], the concentration for half-maximal inhibition (IC50) came to 77.2 nM in experiment [1] and 226 nM in experiment [2].
The like results for `COc1cccc(C(=O)c2cnc(NCc3ccc(N4CCN(C)CC4)cc3)nc2)c1` [Example 154, (3-methoxyphenyl) (2-{[4-(4-methylpiperazin-1-yl)benzyl]amino}pyrimidin-5-yl)methanone] were, in that order, 3790 nM and 6410 nM.
The corresponding values for `O=C(c1cnc(NCc2cncnc2)nc1)c1cccc(C(F)(F)F)c1` [Example 119, {2-[(pyrimidin-5-ylmethyl)amino]pyrimidin-5-yl}[3-(trifluoromethyl)phenyl]methanone] are 6.1 nM and 11.3 nM.
The corresponding values for `CS(=O)(=O)c1cccc(C(=O)c2cnc(NCc3cccnc3)nc2)c1` [Example 13, [3-(methylsulfonyl)phenyl]{2-[(pyridin-3-ylmethyl)amino]pyrimidin-5-yl}methanone] are over 26.1 nM and 2 nM.
For the compound `O=C(c1cnc(NCc2cccnn2)nc1)c1cccc(C(F)(F)F)c1` [Example 67, {2-[(pyridazin-3-ylmethyl)amino]pyrimidin-5-yl}[3-(trifluoromethyl)phenyl]methanone], the results for the IC50 in experiment [1] and in experiment [2] were 81.6 nM and 47.9 nM, respectively.
Regarding `CN1CCC(CNc2ncc(C(=O)c3cccc(C#N)c3)cn2)CC1` [Example 164, 3-[(2-{[(1-methylpiperidin-4-yl)methyl]amino}pyrimidin-5-yl)carbonyl] benzonitrile], the results for the IC50 in experiment [2] and in experiment [3] were 8570 nM and 1810 nM, respectively.
The like results for `COc1cccc(C(=O)c2cnc(NC(C)c3cncnc3)nc2)c1` (stereo not drawn) [Example 142, (3-methoxyphenyl) (2-{[1-(pyrimidin-5-yl)ethyl]amino}pyrimidin-5-yl)methanone] were, in that order, 34.3 nM and 17.1 nM.
